Reference: patent US4397853A, “Isoxazole derivatives” (Yoshitomi Pharmaceutical Industries Ltd., priority 1979, dated 1983)
Where two headings read alike, the source gives them in different places.

Test system: male dd-mice
Test: anti-apomorphine activity in mice (inhibition of motor activity after apomorphine, animex)
Type: in vivo
Conditions: Mus musculus, po, read-out: Anti-apomorphine activity ED50 (dose which inhibited the motor activity by 50% as compared with the control)
Protocol: Groups of 5 male dd-mice (20-25 g body weight) each were used. Apomorphine hydrochloride (0.5 mg/kg) was subcutaneously administered 60 minutes after oral administration of test compound. Immediately after the apomorphine treatment, motor activity was determined for 20 minutes by animex. For the control groups, 0.5% methylcellulose solution was administered instead of test compound. The ED50, a dose which inhibited the motor activity by 50% as compared with the control, was determined.

[1] = male dd-mice, p.o., 60 min before apomorphine hydrochloride 0.5 mg/kg s.c., motor activity for 20 min by animex

| Compound | ED50 [1] | ED50 |
| --- | --- | --- |
| O=c1[nH]c2ccccc2n1C1CCN(CC2=NOC(c3ccc(F)cc3)C2)CC1 (stereo not shown) [A, 1-[5-(4-Fluorophenyl)-4,5-dihydroisoxazol-3-ylmethyl]-4-(2-oxo-1-benzimidazolinyl)piperidine] | 1.7 mg/kg |  |
| O=c1[nH]c2cc(F)ccc2n1C1CCN(CC2=NOC(c3ccc(F)cc3)C2)CC1 (stereo not shown) [B, 1-[5-(4-Fluorophenyl)-4,5-dihydroisoxazol-3-ylmethyl]-4-(5-fluoro-2-oxo-1-benzimidazolinyl)piperidine] | 2.1 mg/kg |  |
| OC1(c2ccc(Cl)cc2)CCN(CC2=NOC(c3ccc(F)cc3)C2)CC1 (stereo not shown) [C, 1-[5-(4-Fluorophenyl)-4,5-dihydroisoxazol-3-ylmethyl]-4-(4-chlorophenyl)-4-hydroxypiperidine] |  | 3.4 mg/kg |
| CN1CCN(C2=Nc3cc(Cl)ccc3Nc3ccccc32)CC1 [Clozapine, reference compound] | 10 mg/kg |  |
